According to paper PMC3744326 (Synapse (New York, N.Y.), 2013):
pKi: −log10 of the molar value.

Molecular target: T1, serotonin 5-HT1A receptor (Rattus norvegicus, UniProt P19327)
T1 sequence (P19327 1-422): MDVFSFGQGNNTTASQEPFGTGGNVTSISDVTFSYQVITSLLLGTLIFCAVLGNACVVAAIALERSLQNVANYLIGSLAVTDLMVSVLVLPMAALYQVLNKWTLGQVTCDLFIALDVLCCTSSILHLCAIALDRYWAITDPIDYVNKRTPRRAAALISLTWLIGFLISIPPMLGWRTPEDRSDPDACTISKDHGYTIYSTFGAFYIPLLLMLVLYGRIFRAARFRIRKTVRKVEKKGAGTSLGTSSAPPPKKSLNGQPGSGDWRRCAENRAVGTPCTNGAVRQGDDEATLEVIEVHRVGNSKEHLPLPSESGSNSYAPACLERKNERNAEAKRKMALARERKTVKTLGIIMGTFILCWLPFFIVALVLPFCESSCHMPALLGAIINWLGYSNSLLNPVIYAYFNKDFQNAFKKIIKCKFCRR
Experiment: [3H]WAY-100635 radioligand displacement in rat brain homogenates
Type: binding

`COc1ccccc1N1CCN(CCN(c2ccccn2)C(=O)[C@H]2CC[C@H](CF)CC2)CC1` [trans-mefway, N-{2-[4-(2'-methoxyphenyl)piperazinyl]ethyl}-N-(2-pyridyl)-N-(cis/trans-4'-[^18F]fluoromethylcyclohexane)-carboxamide] was tested, and the pKi was 9.08.
